These results are taken from US20250213560A1, “NITROGEN-CONTAINING HETEROCYCLIC COMPOUNDS HAVING PHENYL GROUP AND USES THEREOF” (BNH RESEARCH CO., LTD., priority 2022, published 2025).

For one series, the system named is APP/PS1 mice. Nature of the series: Hippocampal fEPSP I/O curve and LTP in Alzheimer's model mice. Format: in vivo, mouse. The following applies: hippocampus CA1, Os pump ventricular infusion 3 μM. The source says:
Field recordings were made with a concentric bipolar electrode positioned in the stratum radiatum of the CA1 region using an extracellular glass pipette (3.5 M (2) filled with aCSF. Specifically, fEPSPs were evoked by Schaffer collateral (SC)/commissural fibers with a concentric bipolar electrode placed 200 to 300 μm from the recording pipette. Stimulation was delivered through a bipolar electrode (FHC, Bowdoin, ME, USA) placed in the Schaffer collateral-CA1 (SC). Te SC circuit was visualized using differential interference contrast (DIC) microscopy at 4× magnification and identified by the ability to evoke short and constant latency field excitatory postsynaptic potentials (fEPSPs) at CA1 synapses by SC input stimulation. In all fEPSP experiments, the test stimulation were measured prior to the beginning of all the experiments (30 μA) and a test-pulse stimulation strength that evokes 50% of the maximum fEPSP was used. Baseline synaptic responses was recorded for 30 minutes, and then long-term potentiation (LTP) was induced by high-frequency stimulation (HFS; 100 Hz, 4 trains, 1 s duration, 20 s inter-train interval). […]
Excitatory postsynaptic potential (EPSP) was recorded by the whole-cell patch clamp method using a patch clamp amplifier (molecular devices, USA). […] It was then recorded for 60 minutes (LTP). […]

Another series has as its system SH-SY5Y cells. Nature of the series: Cytotoxicity test (CCK-8 cell viability) in SH-SY5Y cells. Format: cell-based, human. The settings on record: SH-SY5Y, 0, 0.1, 1, 10, 100 μM, 24 hours. As to the method: Human undifferentiated neuroblastoma cell line SH-SY5Y and human embryonic kidney cell line (HEK)-293T were purchased from Korean Cell Line Bank (Korea) and Takara (Japan), respectively. Cells were grown in HyClone Minimal Essential Medium (MEM) and Dulbecco's Modified Eagle Medium (DMEM), respectively, supplemented with 10% (v/v) fetal bovine serum (FBS), penicillin (100 U/mL), and streptomycin ([…]). Cells were maintained in a humidified atmosphere of 95% air and 5% CO2 at 37° C. Cells were passaged 10 times at maximum. Cells were dissociated using 0.05% trypsin-EDTA solution and the cells were seeded in new culture dishes for maintenance. […]
The time of co-incubation was 24 hours and six replicates were made for each measurement. Finally, 10 μL of CCK-8 reagent (Dojindo Laboratories, Rockville, MD) was added to each well, and after incubation at 37° C. for 3 minutes, the OD at 450 nm was measured using a multifunction microplate reader (Tecan Infinite M200 Pro). These measurements were compared to that of a control and expressed as a percentage of the control to calculate cell viability. The IC50 value was calculated using SPSS software. To do this, the absorbance of the blank wells with only growth medium is subtracted from the values or the wells with cells. […]
The cytotoxicity of the compound was evaluated by treating cells with BnH12003 and measuring cell viability.

A further series relates to 293T cells. The series is described as follows: Cytotoxicity test (CCK-8 cell viability) in 293T cells. Format: cell-based, human. In short, it runs like this:
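293T cells plated 24 h, then exposed to serial compound concentrations for 24 h (six replicates). Viability by CCK-8 ([…], OD 450 nm), blank-subtracted and expressed as percent of vehicle control; IC50 calculated from these values.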

Another series concerns the target T1, HDAC4 (Mus musculus, UniProt Q6NZM9).
T1 construct: Cortical tissue from mice was prepared according to protocol above then was homogenized and lysed for protein extraction; from tissue; host or cells: barrel cortex of C57BL/6J mice
The series is described as follows: HDAC4 protein level in barrel cortex by Western blot. Format: in vivo. The following applies: mice barrel cortex.

Molecules are shown by their SMILES.

T1 sequence (Q6NZM9 whole entry): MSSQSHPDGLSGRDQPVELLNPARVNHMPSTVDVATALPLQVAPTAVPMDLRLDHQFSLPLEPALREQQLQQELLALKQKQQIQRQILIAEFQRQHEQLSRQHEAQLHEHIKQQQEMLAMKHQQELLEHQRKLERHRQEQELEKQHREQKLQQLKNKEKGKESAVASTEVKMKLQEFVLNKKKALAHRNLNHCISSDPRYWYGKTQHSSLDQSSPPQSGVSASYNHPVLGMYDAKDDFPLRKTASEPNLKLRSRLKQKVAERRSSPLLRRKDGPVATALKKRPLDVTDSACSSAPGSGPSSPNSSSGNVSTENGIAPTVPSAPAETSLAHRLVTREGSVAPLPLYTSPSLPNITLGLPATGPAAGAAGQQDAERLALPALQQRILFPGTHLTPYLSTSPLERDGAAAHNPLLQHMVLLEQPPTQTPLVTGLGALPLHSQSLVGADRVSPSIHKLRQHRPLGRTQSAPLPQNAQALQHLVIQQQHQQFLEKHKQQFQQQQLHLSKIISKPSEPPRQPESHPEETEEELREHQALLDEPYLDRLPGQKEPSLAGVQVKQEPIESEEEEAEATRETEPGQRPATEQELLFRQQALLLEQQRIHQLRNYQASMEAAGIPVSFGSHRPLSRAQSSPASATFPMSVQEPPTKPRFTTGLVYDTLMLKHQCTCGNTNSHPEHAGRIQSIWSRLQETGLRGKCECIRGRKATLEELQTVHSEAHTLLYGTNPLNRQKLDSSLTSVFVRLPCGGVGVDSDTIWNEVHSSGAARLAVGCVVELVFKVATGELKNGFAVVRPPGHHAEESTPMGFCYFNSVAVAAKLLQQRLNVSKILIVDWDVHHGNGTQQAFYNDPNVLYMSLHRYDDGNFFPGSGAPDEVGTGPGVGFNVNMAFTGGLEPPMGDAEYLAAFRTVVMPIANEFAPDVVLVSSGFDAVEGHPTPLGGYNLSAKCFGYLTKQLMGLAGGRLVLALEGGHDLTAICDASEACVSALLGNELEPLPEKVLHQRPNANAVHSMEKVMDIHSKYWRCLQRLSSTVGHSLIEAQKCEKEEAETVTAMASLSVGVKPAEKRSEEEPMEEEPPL

As for `C[C@H]1CC[C@@H](C(=O)O)CN1C(=O)Cc1ccc(-c2cncnc2)cc1` [BnH12003, (3R,6S)-6-methyl-1-(2-(4-(pyrimidin-5-yl)phenyl)acetyl) piperidine-3-carboxylic acid], in the series with APP/PS1 mice, the “I/O curve of field EPSP (synaptic efficacy)” value was “synaptic efficacy was increased”. Besides, the “LTP of EPSP, excitatory SC pathway” value in the series with APP/PS1 mice is recorded as “significantly increased”. In addition, the cell viability result in the series on SH-SY5Y cells is reported as “no significant change in cell viability”; in the series on 293T cells (293T, 0, 0.1, 1, 10, 100 μM, 24 hours, CCK-8), “no significant change in cell viability”. In addition, the “Cell viability test results (CCK) 10 uM” value in the series with 293T cells (293T cell line, 10 uM) was 99%<. Besides, the “Cell viability test results (CCK) 100 uM” value in the series on 293T cells (293T cell line, 100 uM) was determined as 90%<. Further, the HDAC4 protein expression result on HDAC4 (intraperitoneal administration) and on HDAC4 (oral administration) was “significantly suppressed” in each case. In addition, at HDAC4 (oral and intraperitoneal administration), the “duration of the inhibitory effect on HDAC4 protein expression” value is no less than 10 days.
